Entries after “also recorded” stand apart in the source; their conditions may differ. One block for each molecule: values may come before it.
Legend:
[1] = test system: HRF; test: Phage clone ELISA for binding to immobilized HRF; settings: wells coated with HRF or BSA (control)
Description: Particularly, HRF was dissolved in a coating buffer (0.1 M NaHCO 3, pH 8.6) at the concentration of 20 μg/ml, which was loaded in a polystyrene microtiter plate (50 ? /well), followed by coating at 4° C. for overnight and blocking non-specific binding with BSA. The plate was washed with 0.1% Tween/TBS (TBST) 6 times. […] The plate stood at room temperature for 1 hour. TBST was added thereto, and the plate stood for 5 minutes, followed by washing. The washing was performed once after one round of panning, 5 times after 2 and 3 rounds of panning, and 10 times after 4 rounds of panning. 50 ? of glycine/HCl buffer (pH 2.2) was added thereto, which stood for 5 minutes. Then, phages were eluted, and then neutralization was induced with 8 ? of 1 M Tris-HCl (pH 9.1). The eluted phage solution was added to 20 ? of ER2537 culture medium (OD600=0.5˜1), followed by culture in a 37° C. shaking incubator (rpm=200) for 2 hours. 100 ? of SB medium was added thereto, followed by culture for overnight with shaking (250 rpm). The culture solution was centrifuged at 10,000 rpm (4° C.) for 15 minutes. 100 ? of the obtained supernatant was added with 30 ? of 5×PEG/NaCl (20% PEG(w/v), 15% NaCl (w/v)), followed by dissolving for 5 minutes. The mixture was then left in ice for 30 minutes. The mixture was centrifuged at 10,000 rpm (4° C.) for 20 minutes and the supernatant was discarded. The obtained pellet was suspended in 1 ? of 3% BSA/TBS. After performing centrifugation at 14,000 rpm for 5 minutes, the supernatant was obtained and used for panning. Affinity purification and phage replication were repeated 4 times, followed by eluting phages. Each phage clone was obtained from the proper plate of the eluted phage, followed by ELISA. Those phage clones showing a specific affinity to HRF were separated, followed by sequencing to confirm the peptide sequence. Those phage display peptides showing dominant binding to HRF were selected and listed below:
That is, each phage plaque was added to 1 ? of the ER2537 culture medium (OD600=0.5˜1) cultured in SB medium, followed by culture in a 37° C. incubator (rpm=250) for 5 hours. 100 ? of each culture solution was added to 900 ? of SB medium, followed by culture for overnight. […]
Each phage solution separated above was diluted in an equal volume of 6% BSA/PBS, and 50 ? of the diluted solution was added to each well of the plastic well plate coated with HRF or BSA (control), which stood for 2 hours. […] After adding peroxidase substrate solution thereto (100 ? /well), OD405 was measured with an ELISA reader.
HRF was diluted serially by ⅕ fold each from the concentration of 20 μg/ ? […] The phage 2 solution diluted serially by ⅕ fold each (½, 1/10, 1/50, 1/250, and 1/1250 of the stock solution) was added thereto, followed by ELISA and OD405 was measured.

[2] = test system: HRF; test: HRF binding affinity of heptamer peptides by ELISA (alanine scan of p2); settings: p2 and its substituted heptamers m1-m7
Excerpt: In order to confirm the residues involved in the HRF binding affinity of the heptamer peptide of the present invention, the amino acid sequence of p2 was substituted with alanine (A), and only m5 was substituted with lysine (K). As a result, the following sequences were established: […]

[3] = biological target: T1, Del-N11dTCTP (Rattus norvegicus, UniProt P63029); test: Inhibition of Del-N11dTCTP-induced IL-8 secretion by domain peptides in BEAS-2B cells; assay type: cell-based; settings: Del-N11dTCTP 70 nM, peptide molar ratios 0~1, 24 hours, ELISA
T1 construct: made in house
T1 sequence (P63029 11-172 limits assumed): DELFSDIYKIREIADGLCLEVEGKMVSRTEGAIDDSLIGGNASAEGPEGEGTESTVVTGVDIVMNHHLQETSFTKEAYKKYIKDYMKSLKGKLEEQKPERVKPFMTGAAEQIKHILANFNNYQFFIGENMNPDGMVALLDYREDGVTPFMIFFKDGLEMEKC
Description: To investigate inhibitory effect of FL domain, Helix 2 domain, and Helix 3 domain on Del-N11dTCTP, the inventors synthesized FL domain (Ac-[…]-NH2) (SEQ. ID. NO: 1), Helix 2 domain (Ac-[…]-NH2) (SEQ. ID. NO: 11), and Helix 3 domain (Ac-[…]-NH2) (SEQ. ID. NO: 22) by using the synthetic peptides prepared with NH2-terminal acetylation and COOH-terminal amidation, followed by purification.
Particularly, BEAS-2B cells were treated with Del-N11dTCTP (70 nM) by the same manner as described in Experimental Example 1. At this time, the synthesized FL domain, Helix 2 domain, and Helix 3 domain were treated to the cells at different molar ratios (0˜1), followed by reaction for 30 minutes. Then, Del-N11dTCTP was added thereto. 24 hours later, the supernatant was obtained and the released IL-8 was quantified by ELISA.

[4] = test system: BEAS-2B cells; test: GM-CSF secretion by f-TCTP, Δ-dTCTP and Del-N11dTCTP in BEAS-2B cells; assay type: cell-based; settings: protein at 1, 5 or 10 μg/ml, 24 hours, ELISA
Description: (§1) To investigate the IL-8 and GM-CSF secretory activity of f-TCTP, Δ-dTCTP, and Del-N11dTCTP in BEAS-2B cells, the present inventors compared the activity of f-TCTP, Δ-dTCTP, and Del-N11dTCTP by measuring the secretion of IL-8 in BEAS-2B cells.
(§2) Particularly, BEAS-2B cells were cultured in a 48-well plate until the confluency reached to 70%. Then, the cells were washed with 1% penicillin-streptomycin/BEBM (Clonetics) twice. Each recombinant protein of the Δ-dTCTP separated in Example 1 of the invention, and the f-TCTP and Del-N11dTCTP constructed by the method described in Korean Patent Application No. 2006-0007663 was added thereto at the concentration of 1 μg/ ? , 5 μg/ ? , or 10 μg/ ? 24 hours later, the supernatant was obtained and the released IL-8 and GM-CSF were quantified by ELISA.

[5] = test system: dTBP2 (dTCTP binding peptide 2); test: Affinity of TCTP proteins to immobilized biotinylated dTBP2 (ELISA); settings: biotinylated dTBP2 0.01-10 μm on streptavidin plate; protein 0.2 μg/ml; ELISA 450/570 nm
Description: To investigate the affinity to dTBP2 of f-TCTP, Δ-dTCTP, and Del-N11dTCTP of the present invention, biotin was conjugated to the COOH-terminus of dTBP2 known to bind to HRF, followed by purification. The purified protein was immobilized in the plastic well coated with streptavidin, to which f-TCTP, Δ-dTCTP, and Del-N11dTCTP were added. Then, the binding strength of each protein was investigated.
Particularly, 50 ? of the biotinylated dTBTP2 dissolved in a buffer (TBS [25 mM Tris, 150 mM NaCl, pH 7.2], 0.1% BSA, 0.05% Tween-20) at different concentrations of 0.01, 0.1, 1, and 10 μm was added to Reacti-Bind Streptavidin Coated Polystyrene Plates (PIERCE), followed by reaction at room temperature for 2 hours. The plate was washed with a washing buffer three times. Each of f-TCTP, Δ-dTCTP, and Del-N11dTCTP was dissolved in TBS at the concentration of 0.2 μg/ ? . 60 ? of the mixture was added to each well of the plate, followed by reaction for 1 hour. The plate was washed with a washing buffer three times. 100 ? of anti-HRF rabbit antibody (Bio-Rad) diluted in a buffer (1:2000) was added to each well of the plate, which stood at room temperature for 30 minutes. The plate was washed with a washing buffer three times and with TBS once, to which HRP-conjugated anti-rabbit antibody (1:2000) was added (100 ? /well), which stood at room temperature for 30 minutes. The plate was washed with a washing buffer three times and with TBS once, to which […] (PIERCE), the peroxydase substrate solution, was added (100 ? /well). Color development was measured at 450 nm and 570 nm using an ELISA reader (Bio-Rad), and affinity was determined by the difference.

[6] = test system: BEAS-2B cells; test: IL-8 secretion by f-TCTP, Δ-dTCTP and Del-N11dTCTP in BEAS-2B cells; assay type: cell-based; settings: protein at 1, 5 or 10 μg/ml, 24 hours, ELISA
Description: as §1, §2

Molecule: WEFPGWM (IgE-dependent histamine-releasing factor binding peptide3) [ph4, ID; NO: 25]
- binding of phage clone to HRF (ELISA, OD405) [1]: specifically bind to HRF

- HRF binding affinity (rank order) [2]: p2, m6>m7>m3>m2>fm5>M1>m4
Molecule: AYVYPSM [m1]

Molecule: Ac-KPERVKPFMTGAAEQIKHILANFN-NH2 [Helix 3 domain, ID; NO: 22]
- inhibition of IL-8 secretion induced by Del-N11dTCTP [3]: inhibited more strongly by FL domain and Helix 2 domain than by Helix 3 domain

- HRF binding affinity (rank order) [2]: p2, m6>m7>m3>m2>fm5>M1>m4
Molecule: WYVYPAM [m6]

- HRF binding affinity (rank order) [2]: p2, m6>m7>m3>m2>fm5>M1>m4
Molecule: WYVYKSM [m5]

- HRF binding affinity (rank order) [2]: p2, m6>m7>m3>m2>fm5>M1>m4
Molecule: WYVYPSA [m7]

Molecule: LVTYPLP (IgE-dependent histamine-releasing factor binding peptide) [ph1, ID; NO: 23]
- binding of phage clone to HRF (ELISA, OD405) [1]: specifically bind to HRF

- HRF binding affinity (rank order) [2]: p2, m6>m7>m3>m2>fm5>M1>m4
Molecule: WYAYPSM [m3]

- HRF binding affinity (rank order) [2]: p2, m6>m7>m3>m2>fm5>M1>m4
Molecule: WYVAPSM [m4]

- HRF binding affinity (rank order) [2]: p2, m6>m7>m3>m2>fm5>M1>m4
Molecule: WAVYPSM [m2]

Molecule: f-TCTP: full-length TCTP, monomer form (SEQ. ID. NO: 17)
- secretion of GM-CSF [4]: Del-N11dTCTP was superior to f-TCTP and Δ-dTCTP
- affinity to dTBP2 [5]: Del-N11dTCTP had higher dTBP2 affinity than f-TCTP and Δ-dTCTP
- secretion of IL-8 [6]: Del-N11dTCTP was superior to f-TCTP and Δ-dTCTP

B1: Δ-dTCTP: dimer form of FL domain-deleted TCTP (protein)
chain: MIIYRDLISHDEMFSDIYKIREIADGLCLEVEGKMVSGGITGVDIVMNHHLQETSFTKEAYKKYIKDYMKSIKGKLEEQRPERVKPFMTGAAEQIKHILANFKNYQFFIGENMNPDGMVALLDYREDGVTPYMIFFKDGLEMEKCLEHHHHHH
- secretion of GM-CSF [4]: Del-N11dTCTP was superior to f-TCTP and Δ-dTCTP
- affinity to dTBP2 [5]: low affinity; also recorded: Del-N11dTCTP had higher dTBP2 affinity than f-TCTP and Δ-dTCTP
- secretion of IL-8 [6]: Del-N11dTCTP was superior to f-TCTP and Δ-dTCTP
- secretion of IL-8 ([6]; listed as A-dTCTP): could not induce IL-8 secretion

Reference: patent US11518805B2, “Binding inhibitor between TCTP dimer type IgE-dependent histamine releasing factor and receptor thereof, and use thereof” (EWHA UNIVERSITY—INDUSTRY COLLABORATION FOUNDATION, priority 2014, dated 2022)
